In ChEMBL document CHEMBL4476867, “Hydroxy formamide derivatives and their use” (2016):

How the values were obtained:
Format in all cases: cell-based
[1] = molecular target: T1, Bone morphogenetic protein 1 (Homo sapiens, UniProt P13497); experiment: Inhibition of C-terminal FLAG-6x-His epitope tagged and N-terminal human RAGE signal sequence tagged human BMP1 (23 to 721 amino acids) expressed in CHO-E1 cells pre-incubated for 10 mins before promyostatin peptide substrate addition and measured after 30 mins using 50 nM BMP1 by FRET based assay
T1 sequence (P13497 whole entry): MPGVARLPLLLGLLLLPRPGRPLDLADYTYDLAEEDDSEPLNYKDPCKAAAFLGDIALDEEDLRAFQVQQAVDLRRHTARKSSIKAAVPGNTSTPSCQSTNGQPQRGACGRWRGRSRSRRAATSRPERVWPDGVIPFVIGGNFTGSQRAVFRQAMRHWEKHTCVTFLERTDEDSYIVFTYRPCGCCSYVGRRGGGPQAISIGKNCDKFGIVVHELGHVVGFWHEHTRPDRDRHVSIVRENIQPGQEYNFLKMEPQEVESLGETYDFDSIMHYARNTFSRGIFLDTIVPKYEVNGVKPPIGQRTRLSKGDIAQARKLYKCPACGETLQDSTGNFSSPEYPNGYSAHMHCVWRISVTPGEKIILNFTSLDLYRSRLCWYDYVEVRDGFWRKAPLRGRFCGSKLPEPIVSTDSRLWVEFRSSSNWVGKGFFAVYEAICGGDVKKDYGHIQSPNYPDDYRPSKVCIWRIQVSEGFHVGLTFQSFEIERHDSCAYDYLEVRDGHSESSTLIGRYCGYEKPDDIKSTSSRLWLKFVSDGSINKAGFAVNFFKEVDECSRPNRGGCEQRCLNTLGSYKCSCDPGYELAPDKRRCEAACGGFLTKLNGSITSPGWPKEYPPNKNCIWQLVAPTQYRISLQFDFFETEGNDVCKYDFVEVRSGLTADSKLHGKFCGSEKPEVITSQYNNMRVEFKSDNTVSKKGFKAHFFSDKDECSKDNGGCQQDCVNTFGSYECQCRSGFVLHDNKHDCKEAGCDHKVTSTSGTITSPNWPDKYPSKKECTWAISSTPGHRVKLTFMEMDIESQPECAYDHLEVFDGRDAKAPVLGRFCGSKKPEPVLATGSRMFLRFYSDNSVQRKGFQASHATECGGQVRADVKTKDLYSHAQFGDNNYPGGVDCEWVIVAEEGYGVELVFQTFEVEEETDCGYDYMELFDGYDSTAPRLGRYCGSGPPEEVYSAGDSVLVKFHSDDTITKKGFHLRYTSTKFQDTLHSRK

[2] = molecular target: T1, Bone morphogenetic protein 1; experiment: Inhibition of C-terminal FLAG-6x-His epitope tagged and N-terminal human RAGE signal sequence tagged human BMP1 (23 to 721 amino acids) expressed in CHO-E1 cells pre-incubated for 10 mins before promyostatin peptide substrate addition and measured after 60 mins using 0.5 nM BMP1 by FRET based assay
[3] = molecular target: Tolloid-like protein 1 (Homo sapiens, UniProt O43897, I156V/N221S/V284A); experiment: Inhibition of recombinant human TLL1 I156V/N221S/V284A mutant expressed in CHOE1A cells pre-incubated for 10 mins before promyostatin peptide substrate addition and measured after 60 mins by FRET based assay
Sequence of Tolloid-like protein 1 (O43897 148-1013 I156V/N221S/V284A limits assumed): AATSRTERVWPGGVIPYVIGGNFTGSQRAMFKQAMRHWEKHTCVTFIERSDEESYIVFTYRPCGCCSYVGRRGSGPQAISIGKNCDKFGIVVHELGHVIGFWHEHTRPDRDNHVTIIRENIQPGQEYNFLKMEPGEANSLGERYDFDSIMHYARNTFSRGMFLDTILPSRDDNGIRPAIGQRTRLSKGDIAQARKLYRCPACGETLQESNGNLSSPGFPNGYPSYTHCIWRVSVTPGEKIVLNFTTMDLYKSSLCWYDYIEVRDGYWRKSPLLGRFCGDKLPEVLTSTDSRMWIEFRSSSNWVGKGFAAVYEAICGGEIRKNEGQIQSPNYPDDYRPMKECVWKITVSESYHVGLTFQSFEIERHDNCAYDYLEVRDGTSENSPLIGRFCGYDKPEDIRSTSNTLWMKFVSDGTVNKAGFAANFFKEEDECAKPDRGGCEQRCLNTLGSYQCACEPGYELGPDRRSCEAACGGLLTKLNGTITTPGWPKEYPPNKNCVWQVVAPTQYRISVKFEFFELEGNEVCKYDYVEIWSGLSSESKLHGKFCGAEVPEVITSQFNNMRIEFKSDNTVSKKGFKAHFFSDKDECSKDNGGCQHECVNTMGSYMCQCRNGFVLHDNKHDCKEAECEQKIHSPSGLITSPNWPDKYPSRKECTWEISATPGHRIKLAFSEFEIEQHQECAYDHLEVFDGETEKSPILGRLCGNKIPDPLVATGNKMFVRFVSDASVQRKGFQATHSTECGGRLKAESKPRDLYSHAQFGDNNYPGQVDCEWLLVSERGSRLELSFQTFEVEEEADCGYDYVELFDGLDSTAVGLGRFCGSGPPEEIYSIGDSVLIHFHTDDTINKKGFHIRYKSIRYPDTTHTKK

[4] = molecular target: T2, Tolloid-like protein 2 (Homo sapiens, UniProt Q9Y6L7); experiment: Inhibition of C-terminal Avi-6x-His epitope tagged and N-terminal human RAGE signal sequence tagged recombinant human TLL2 (26 to 1015 amino acids) expressed in CHOE1A cells incubated for 60 mins with promyostatin peptide substrate by FRET based assay
T2 sequence (Q9Y6L7 whole entry): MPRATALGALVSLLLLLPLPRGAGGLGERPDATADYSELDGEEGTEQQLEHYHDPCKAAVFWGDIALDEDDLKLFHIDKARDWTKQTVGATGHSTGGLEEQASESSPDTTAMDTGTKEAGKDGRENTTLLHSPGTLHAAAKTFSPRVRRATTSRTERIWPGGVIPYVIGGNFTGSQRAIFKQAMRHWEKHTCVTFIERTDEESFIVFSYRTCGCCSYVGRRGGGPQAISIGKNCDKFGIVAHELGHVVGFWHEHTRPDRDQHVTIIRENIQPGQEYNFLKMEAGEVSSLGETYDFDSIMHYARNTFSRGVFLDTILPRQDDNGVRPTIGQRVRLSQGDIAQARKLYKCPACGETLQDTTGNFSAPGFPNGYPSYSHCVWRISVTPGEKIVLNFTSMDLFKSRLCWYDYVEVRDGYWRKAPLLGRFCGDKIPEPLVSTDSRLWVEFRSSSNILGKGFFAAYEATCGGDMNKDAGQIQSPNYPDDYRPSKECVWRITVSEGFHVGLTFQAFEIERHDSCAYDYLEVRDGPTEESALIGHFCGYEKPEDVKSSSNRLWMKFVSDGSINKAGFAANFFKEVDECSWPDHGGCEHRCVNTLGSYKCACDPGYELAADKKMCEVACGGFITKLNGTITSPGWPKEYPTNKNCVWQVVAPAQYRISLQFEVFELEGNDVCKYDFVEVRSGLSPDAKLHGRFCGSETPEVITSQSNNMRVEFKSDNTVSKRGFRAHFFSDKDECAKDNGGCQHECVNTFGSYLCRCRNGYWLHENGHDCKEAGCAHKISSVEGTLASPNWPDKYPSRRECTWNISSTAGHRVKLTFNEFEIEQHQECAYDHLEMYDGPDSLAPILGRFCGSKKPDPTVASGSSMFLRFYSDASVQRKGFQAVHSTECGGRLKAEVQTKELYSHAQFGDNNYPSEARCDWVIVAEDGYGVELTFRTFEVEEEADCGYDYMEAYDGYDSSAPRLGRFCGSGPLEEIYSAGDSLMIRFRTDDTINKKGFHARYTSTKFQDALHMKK

SMILES: CCCCC[C@H](CN(O)C=O)C(=O)NCNC(=O)c1ccc(-c2cccc(C#N)c2)o1
- IC50 [1]: < 200 nM
- IC50 [2]: < 126 nM
- IC50 [3]: < 398 nM
- IC50 [4]: < 794 nM

SMILES: CCCCC[C@H](CN(O)C=O)C(=O)NCNC(=O)c1ccc(-c2ccc(C(=O)OC)cc2)o1
- IC50 [1]: < 200 nM
- IC50 [2]: < 126 nM
- IC50 [3]: < 398 nM
- IC50 [4]: < 794 nM

SMILES: CCOc1cc(C(=O)O)cc(-c2ccc(C(=O)NCNC(=O)CCN(O)C=O)o2)c1
- IC50 [1]: < 200 nM
- IC50 [2]: < 126 nM
- IC50 [3]: < 398 nM

SMILES: CCCCC[C@H](CN(O)C=O)C(=O)NCNC(=O)c1ccc(-c2cncc(OC)c2)o1
- IC50 [1]: < 200 nM
- IC50 [2]: < 126 nM
- IC50 [3]: < 398 nM
- IC50 [4]: < 794 nM

SMILES: CCCCC[C@H](CN(O)C=O)C(=O)NCNC(=O)c1ccc(-c2cccc(OCCN3CCCC3)c2)o1
- IC50 [1]: < 200 nM
- IC50 [2]: < 126 nM
- IC50 [3]: < 398 nM
- IC50 [4]: < 794 nM

SMILES: CCCCC[C@H](CN(O)C=O)C(=O)NCNC(=O)c1ccc(-c2ccccc2O)o1
- IC50 [1]: < 200 nM
- IC50 [2]: < 126 nM
- IC50 [3]: < 398 nM
- IC50 [4]: < 794 nM

SMILES: CCCCC[C@@H](C(=O)NCNC(=O)c1ccc(-c2cccc(/C(N)=N/O)c2)o1)[C@@H](CC)N(O)C=O
- IC50 [1]: < 200 nM
- IC50 [2]: < 126 nM
- IC50 [3]: < 398 nM
- IC50 [4]: < 794 nM

SMILES: CCCCC[C@H](CN(O)C=O)C(=O)NCNC(=O)c1ccc(-c2ccccc2C(=O)O)o1
- IC50 [1]: < 200 nM
- IC50 [2]: < 126 nM
- IC50 [3]: < 398 nM
- IC50 [4]: < 794 nM

SMILES: O=CN(O)C[C@@H](CC1CCCC1)C(=O)NCNC(=O)c1ccc(-c2ccccc2)o1
- IC50 [1]: < 200 nM
- IC50 [2]: < 126 nM
- IC50 [3]: < 398 nM
- IC50 [4]: < 794 nM

SMILES: CCCCC[C@@H](C(=O)NCNC(=O)c1ccc(-c2ccccc2)o1)[C@@H](CO)N(O)C=O
- IC50 [1]: < 200 nM
- IC50 [2]: < 126 nM
- IC50 [3]: < 398 nM
- IC50 [4]: < 794 nM

SMILES: O=CN(O)C[C@@H](CCCc1ccccc1)C(=O)NCNC(=O)c1ccc(-c2ccccc2)o1
- IC50 [1]: < 200 nM
- IC50 [2]: < 126 nM
- IC50 [3]: < 398 nM
- IC50 [4]: < 794 nM

SMILES: CCCCC[C@H](CN(O)C=O)C(=O)NCNC(=O)c1ccc(-c2cccc(C(=O)NC)c2)o1
- IC50 [1]: < 200 nM
- IC50 [2]: < 126 nM
- IC50 [3]: < 398 nM
- IC50 [4]: < 794 nM

SMILES: CCCCC[C@H](CN(O)C=O)C(=O)NCNC(=O)c1ccc(-c2ccc(C)c(C(=O)O)c2)o1
- IC50 [1]: < 200 nM
- IC50 [2]: < 126 nM
- IC50 [3]: < 398 nM
- IC50 [4]: < 794 nM

SMILES: CCCCC[C@H](CN(O)C=O)C(=O)NCNC(=O)c1ccc(-c2ccc3c(c2)S(=O)(=O)NC3)o1
- IC50 [1]: < 200 nM
- IC50 [2]: < 126 nM
- IC50 [3]: < 398 nM
- IC50 [4]: < 794 nM

SMILES: CCCCC[C@H](CN(O)C=O)C(=O)NCNC(=O)c1ccc(-c2cccc(OC)n2)o1
- IC50 [1]: < 200 nM
- IC50 [2]: < 126 nM
- IC50 [3]: < 398 nM
- IC50 [4]: < 794 nM

SMILES: CCCCC[C@@H](C(=O)NCNC(=O)c1ccc(-c2ccc(OC)c(C(=O)O)c2)o1)[C@@H](CC)N(O)C=O
- IC50 [1]: < 200 nM
- IC50 [2]: < 126 nM
- IC50 [3]: < 398 nM
- IC50 [4]: < 794 nM

SMILES: CCCCC[C@H](CN(O)C=O)C(=O)NCNC(=O)c1ccc(-c2cccc(P(=O)(OC)OC)c2)o1
- IC50 [1]: < 200 nM
- IC50 [2]: < 126 nM
- IC50 [3]: < 398 nM
- IC50 [4]: < 794 nM
